# Data: ChEMBL document CHEMBL2073822, “cDNA sequence, transport function, and genomic organization of human OCTN2, a new member of the organic cation transporter family” (Biochem Biophys Res Commun, 1998)
# Legend:
# [1] = molecular target: T1, OCTN2 (organic cation/carnitine transporter 2) (Homo sapiens, UniProt O76082); assay: TP_TRANSPORTER: inhibition of TEA uptake (TEA: 20 uM Procainamide: 5000 uM) in OCTN2-expressing HeLa cells; assay type: functional, cell-based; design: scale not given: the % may be the effect or the level left; conditions: HeLa cells that express OCTN2, probe TEA, read-out: Activity
# T1 sequence (O76082 whole entry): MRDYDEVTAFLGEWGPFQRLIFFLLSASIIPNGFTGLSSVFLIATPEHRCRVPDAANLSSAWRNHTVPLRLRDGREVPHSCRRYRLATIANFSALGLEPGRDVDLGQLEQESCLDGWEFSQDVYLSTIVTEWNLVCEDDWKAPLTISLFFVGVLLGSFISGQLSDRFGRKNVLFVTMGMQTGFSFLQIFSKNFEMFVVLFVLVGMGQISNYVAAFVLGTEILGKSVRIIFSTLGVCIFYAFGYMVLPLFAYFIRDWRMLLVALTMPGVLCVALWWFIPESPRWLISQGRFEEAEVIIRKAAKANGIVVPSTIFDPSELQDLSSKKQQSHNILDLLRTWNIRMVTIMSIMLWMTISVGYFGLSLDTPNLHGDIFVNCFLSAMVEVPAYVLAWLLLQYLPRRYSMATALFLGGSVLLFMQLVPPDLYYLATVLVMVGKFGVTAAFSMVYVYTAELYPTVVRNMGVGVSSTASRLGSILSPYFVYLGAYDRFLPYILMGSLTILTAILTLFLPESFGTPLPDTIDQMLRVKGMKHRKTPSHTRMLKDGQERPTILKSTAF
# [2] = molecular target: T2, Organic cation/carnitine transporter 2 (Homo sapiens, UniProt O76082); assay: TP_TRANSPORTER: inhibition of TEA uptake (TEA: 20 uM, MPP+: 5000 uM) in OCTN2-expressing HeLa cells; assay type: functional, cell-based; design: scale not given: the % may be the effect or the level left
# T2 sequence (O76082 whole entry): T1 sequence (O76082 whole entry)
# [3] = molecular target: T1, OCTN2 (organic cation/carnitine transporter 2); assay: TP_TRANSPORTER: inhibition of TEA uptake (TEA: 20 uM, Methamphetamine: 5000 uM) in OCTN2-expressing HeLa cells; assay type: functional, cell-based; design: scale not given: the % may be the effect or the level left; conditions: HeLa cells that express OCTN2, probe TEA, read-out: Activity
# [4] = molecular target: T1, OCTN2 (organic cation/carnitine transporter 2); assay: in vitro; conditions: HeLa cells that express OCTN2, probe TEA, 20 uM
# Description: TP_TRANSPORTER: inhibition of TEA uptake (TEA: 20 uM, Nicotine: 5000 uM) in OCTN2-expressing HeLa cells
# [5] = molecular target: T1, OCTN2 (organic cation/carnitine transporter 2); assay: in vitro; conditions: HeLa cells that express OCTN2, probe TEA, 20 uM; remark: listed apart in the source
# Description: TP_TRANSPORTER: inhibition of TEA uptake (TEA: 20 uM, Choline: 5000 uM) in OCTN2-expressing HeLa cells
# [6] = molecular target: T2, Organic cation/carnitine transporter 2; assay: TP_TRANSPORTER: inhibition of TEA uptake (TEA: 20 uM, Guanidine: 5000 uM) in OCTN2-expressing HeLa cells; assay type: functional, cell-based
# [7] = molecular target: T2, Organic cation/carnitine transporter 2; assay: TP_TRANSPORTER: inhibition of TEA uptake (TEA: 20 uM, Amphetamine: 5000 uM) in OCTN2-expressing HeLa cells; assay type: functional, cell-based
# [8] = molecular target: T1, OCTN2 (organic cation/carnitine transporter 2); assay: in vitro; conditions: HeLa cells that express OCTN2, probe TEA, 20 uM; remark: listed apart in the source
# Description: TP_TRANSPORTER: inhibition of TEA uptake (TEA: 20 uM, Cimetidine: 5000 uM) in OCTN2-expressing HeLa cells
compound,measurement,setting,value
CCN(CC)CCNC(=O)c1ccc(N)cc1 [PROCAINAMIDE],activity at 5000 µM,[1],39%
C[n+]1ccc(-c2ccccc2)cc1,Activity,[2],39%
CN[C@@H](C)Cc1ccccc1 [METHAMPHETAMINE],activity at 5000 µM,[3],66%
CN1CCC[C@H]1c1cccnc1 [NICOTINE],activity at 5000 µM,[4],44%
C[N+](C)(C)CCO [CHOLINE],activity at 5000 µM,[5],75%
N=C(N)N [GUANIDINE],Activity,[6],is not an inhibitor [-]
CC(N)Cc1ccccc1 (stereo not drawn) [AMPHETAMINE],Activity,[7],is not an inhibitor [-]
CN/C(=N/CCSCc1nc[nH]c1C)NC#N [CIMETIDINE],activity at 5000 µM,[8],39%
